Source: the supplement of paper PMC10307832

Columns and labels:
Experiment in all cases: relative viability (nuclei count vs DMSO), 5 days (fraction); higher = more cells survive
Elesclomol + Palbociclib = compound: CN(NC(=O)CC(=O)NN(C)C(=S)c1ccccc1)C(=S)c1ccccc1 [Elesclomol] + CC(=O)c1c(C)c2cnc(Nc3ccc(N4CCNCC4)cn3)nc2n(C2CCCC2)c1=O [Palbociclib] (partner 0.5 µM)
In short: (§1)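 Lung cancer cell lines in 1536-well plates were dosed by pin tool the day after seeding, either with one drug alone or with a fixed anchor-drug dose plus five library-drug doses (not always all listed) in √10 steps. After 5 days, cells were fixed and their nuclei stained in one step (final 0.05% Triton X-100, 1% formaldehyde, 1 ug/ml Hoechst), then counted on 4× images. Relative viability is the nuclei count in treated wells divided by that in vehicle wells. Values are medians of duplicate plates.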

Elesclomol + Luminespib = compound: CN(NC(=O)CC(=O)NN(C)C(=S)c1ccccc1)C(=S)c1ccccc1 [Elesclomol] + CCNC(=O)c1noc(-c2cc(C(C)C)c(O)cc2O)c1-c1ccc(CN2CCOCC2)cc1 [Luminespib] (partner 0.01 µM)
In short: as §1

Elesclomol + Lapatinib = compound: CN(NC(=O)CC(=O)NN(C)C(=S)c1ccccc1)C(=S)c1ccccc1 [Elesclomol] + CS(=O)(=O)CCNCc1ccc(-c2ccc3ncnc(Nc4ccc(OCc5cccc(F)c5)c(Cl)c4)c3c2)o1 [Lapatinib] (partner 2 µM)
In short: as §1

Elesclomol + Trametinib = compound: CN(NC(=O)CC(=O)NN(C)C(=S)c1ccccc1)C(=S)c1ccccc1 [Elesclomol] + CC(=O)Nc1cccc(-n2c(=O)n(C3CC3)c(=O)c3c(Nc4ccc(I)cc4F)n(C)c(=O)c(C)c32)c1 [Trametinib] (partner 0.02 µM)
In short: as §1

Elesclomol + Pictilisib = compound: CN(NC(=O)CC(=O)NN(C)C(=S)c1ccccc1)C(=S)c1ccccc1 [Elesclomol] + CS(=O)(=O)N1CCN(Cc2cc3nc(-c4cccc5[nH]ncc45)nc(N4CCOCC4)c3s2)CC1 [Pictilisib] (partner 1 µM)
In short: as §1

Row | Cell Line | relative viability (Elesclomol + Palbociclib; first compound 0.003162 µM) | relative viability (Elesclomol + Palbociclib; first compound 0.01 µM) | relative viability (Elesclomol + Palbociclib; first compound 0.03162 µM) | relative viability (Elesclomol + Palbociclib; first compound 0.1 µM) | relative viability (Elesclomol + Luminespib; first compound 0.003162 µM) | relative viability (Elesclomol + Luminespib; first compound 0.01 µM) | relative viability (Elesclomol + Luminespib; first compound 0.03162 µM) | relative viability (Elesclomol + Luminespib; first compound 0.1 µM) | relative viability (Elesclomol + Lapatinib; first compound 0.003162 µM) | relative viability (Elesclomol + Lapatinib; first compound 0.01 µM) | relative viability (Elesclomol + Lapatinib; first compound 0.03162 µM) | relative viability (Elesclomol + Lapatinib; first compound 0.1 µM) | relative viability (Elesclomol + Trametinib; first compound 0.003162 µM) | relative viability (Elesclomol + Trametinib; first compound 0.01 µM) | relative viability (Elesclomol + Trametinib; first compound 0.03162 µM) | relative viability (Elesclomol + Trametinib; first compound 0.1 µM) | relative viability (Elesclomol + Pictilisib; first compound 0.003162 µM) | relative viability (Elesclomol + Pictilisib; first compound 0.01 µM) | relative viability (Elesclomol + Pictilisib; first compound 0.03162 µM) | relative viability (Elesclomol + Pictilisib; first compound 0.1 µM)
1 | 201T | 0.349 | 0.358 | 0.354 | 0.372 | 1.01 | 1.02 | 0.978 | 0.562 | 1.04 | 1.08 | 1.07 | 0.985 | 0.707 | 0.749 | 0.742 | 0.682 | 0.672 | 0.652 | 0.665 | 0.674
2 | A549 | – | – | – | – | – | – | – | – | 0.74 | 0.174 | 0.29 | 0.058 | – | – | – | – | 0.493 | 0.246 | 0.1 | 0.0728
3 | A-427 | 0.498 | 0.455 | 0.211 | 0.178 | 0.701 | 0.498 | 0.27 | 0.117 | 0.933 | 1.02 | 1.05 | 0.52 | 0.761 | 0.411 | 0.236 | 0.183 | 0.678 | 0.345 | 0.648 | 0.45
4 | ABC-1 | 0.327 | 0.265 | 0.288 | 0.258 | 0.254 | 0.206 | 0.322 | 0.223 | 0.935 | 0.477 | 0.466 | 0.42 | – | – | – | – | 0.26 | 0.286 | 0.217 | 0.223
5 | BEN | 0.46 | 0.388 | 0.39 | 0.304 | 0.333 | 0.232 | 0.158 | 0.237 | 0.577 | 0.335 | 0.247 | 0.197 | 0.915 | 0.65 | 0.749 | 0.395 | 0.549 | 0.292 | 0.3 | 0.188
6 | CAL-12T | 0.435 | 0.118 | 0.0519 | 0.0654 | 0.328 | 0.115 | 0.0856 | 0.0463 | 0.529 | 0.484 | 0.103 | 0.0805 | 0.265 | 0.139 | 0.113 | 0.114 | 0.521 | 0.146 | 0.0826 | 0.0934
7 | COR-L23 | 0.276 | 0.17 | 0.153 | 0.115 | 0.598 | 0.316 | 0.206 | 0.0873 | 0.885 | 0.484 | 0.434 | 0.178 | 0.55 | 0.22 | 0.239 | 0.101 | 0.662 | 0.308 | 0.224 | 0.24
8 | COR-L 105 | 0.397 | 0.358 | 0.317 | 0.291 | 0.721 | 0.161 | 0.307 | 0.164 | 0.341 | 0.291 | 0.283 | 0.246 | 0.465 | 0.478 | 0.316 | 0.311 | 0.398 | 0.284 | 0.249 | 0.219
9 | ChaGo-K-1 | 0.875 | 0.882 | 0.568 | 0.154 | 0.524 | 0.541 | 0.184 | 0.128 | – | – | – | – | 0.932 | 0.802 | 0.571 | 0.15 | 0.481 | 0.239 | 0.194 | 0.242
